Test results published in PubChem BioAssay (NCI).
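Exposure lasted 48 hours, with cells grown in 96-well plates and compounds tested at five concentrations. GI50: concentration for 50% inhibition of growth. TGI: total growth inhibition.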

Tests used:
Test in all cases: inhibition of tumour cell growth, NCI panel, 48 h
HCT-15 colon = tested on: HCT-15 colon
LOX IMVI melanoma = tested on: LOX IMVI melanoma
SN12C renal = tested on: SN12C renal
A549 NSCLC = tested on: A549 NSCLC
SNB-19 CNS = tested on: SNB-19 CNS
SW-620 colon = tested on: SW-620 colon
SNB-75 CNS = tested on: SNB-75 CNS
UACC-257 melanoma = tested on: UACC-257 melanoma
HT29 colon = tested on: HT29 colon
SK-OV-3 ovarian = tested on: SK-OV-3 ovarian

Compound	TGI (HCT-15 colon)	TGI (LOX IMVI melanoma)	TGI (SN12C renal)	TGI (A549 NSCLC)	TGI (SNB-19 CNS)	TGI (SW-620 colon)	TGI (SNB-75 CNS)	TGI (UACC-257 melanoma)	TGI (HT29 colon)	TGI (SK-OV-3 ovarian)	GI50 (HCT-15 colon)	GI50 (LOX IMVI melanoma)	GI50 (SN12C renal)	GI50 (A549 NSCLC)	GI50 (SNB-19 CNS)	GI50 (SW-620 colon)	GI50 (SNB-75 CNS)	GI50 (UACC-257 melanoma)	GI50 (HT29 colon)	GI50 (SK-OV-3 ovarian)
CCOC(=O)C1=C(c2ccccc2)N(C)c2ccccc2S1	31.3 µM	30.3 µM	58.2 µM	> 100 µM	> 100 µM	> 100 µM	> 100 µM	86.1 µM	46.1 µM	> 100 µM										
COc1ccc2c(c1)C(=O)c1c-2n(CCCN=[N+]=[N-])c(=O)c2cc(N(C)C)ccc12	> 100 µM	> 100 µM	> 100 µM	> 100 µM	> 100 µM	> 100 µM	56.2 µM	> 100 µM	> 100 µM	> 100 µM	> 100 µM	> 100 µM	> 100 µM	> 100 µM	> 100 µM	> 100 µM	7.21 µM	> 100 µM	> 100 µM	> 100 µM
CCN(CC)CCNc1ccc([N+](=O)[O-])c2sc3ccccc3c(=O)c12	7.59 µM	1.79 µM	11.4 µM	2.15 µM	13 µM	1.93 µM	4.78 µM	3.12 µM	1.59 µM	6.3 µM	1.7 µM	0.421 µM	1.07 µM	0.656 µM	2.22 µM	0.478 µM	1.65 µM	1.37 µM	0.392 µM	2.08 µM
CN(C)c1ccc([O-])cc1.CN(C)c1ccc([O-])cc1.CN(C)c1ccc([O-])cc1.CN(C)c1ccc([O-])cc1.[Ti+4]	> 100 µM	> 100 µM	> 100 µM	> 100 µM	> 100 µM	> 100 µM	> 100 µM	> 100 µM	> 100 µM	> 100 µM	> 100 µM	76.9 µM	> 100 µM	51.9 µM	> 100 µM	69.9 µM	27.2 µM	> 100 µM	> 100 µM	> 100 µM
CCCc1c(CC)c(=N)c2ccccc2n1C	> 100 µM	> 100 µM	> 100 µM	> 100 µM	> 100 µM	> 100 µM	> 100 µM	> 100 µM	> 100 µM	> 100 µM	> 100 µM	> 100 µM	35.8 µM	> 100 µM	34.5 µM	> 100 µM	74.1 µM	47.3 µM	> 100 µM	> 100 µM
O=C1c2ccc([N+](=O)[O-])cc2-c2c1c1ccccc1c(=O)n2CCCNCCCNCCCn1c2c(c3ccc([N+](=O)[O-])cc3c1=O)C(=O)c1ccccc1-2	14.3 µM	16 µM	2.91 µM	> 40.8 µM	6.54 µM	3.07 µM	5.54 µM	59.6 µM	1.48 µM	19.2 µM	3.4 µM	2.7 µM	0.355 µM	2.69 µM	0.985 µM	0.81 µM	0.427 µM	18 µM	0.182 µM	4.79 µM
C=C1SC(=Nc2c(C)cc(C)cc2C)N(C(=O)c2sc3ccccc3c2Cl)C12CCCCC2	> 100 µM	> 100 µM	> 100 µM	> 100 µM	> 100 µM	> 100 µM	> 100 µM	> 100 µM	> 100 µM	> 100 µM	> 100 µM	> 100 µM	> 100 µM	> 100 µM	> 100 µM	31.1 µM	> 100 µM	> 100 µM	58.5 µM	> 100 µM
O=C([CH-]C(=O)c1ccccc1)c1ccccc1.O=C([CH-]C(=O)c1ccccc1)c1ccccc1.O=C([CH-]C(=O)c1ccccc1)c1ccccc1.[Nd+3].[OH3+]	53.6 µM	29.4 µM	68.8 µM	31.8 µM	29.1 µM	26.4 µM	7.23 µM	24.6 µM	16.1 µM	29.3 µM	8.7 µM	11.5 µM	11.1 µM	8.41 µM	4.52 µM	4.1 µM	2.91 µM	7.84 µM	4.64 µM	5.58 µM
Clc1ccc(Cc2nc3ccccc3s2)c(Cl)c1	36.5 µM	31.4 µM	30.3 µM	42.1 µM	49.1 µM	46.4 µM	34.5 µM	34.8 µM	40.3 µM	43.3 µM										
COc1ccc(Nc2ncc(Br)c(NCCCNC(=O)C3CCC3)n2)cc1	62.5 µM	18.1 µM	62.7 µM	37.8 µM	> 100 µM	> 100 µM	12.1 µM	> 100 µM	85.4 µM	36.6 µM	14.7 µM	4.06 µM	5.45 µM	14.3 µM	8.95 µM	6.6 µM	2.98 µM	68.9 µM	18.7 µM	14.1 µM
CC[N+](C)(CC)CCC(O)(c1ccccc1)c1ccccc1	> 100 µM	> 100 µM	> 100 µM	> 100 µM	> 100 µM	> 100 µM	> 100 µM	> 100 µM	> 100 µM	> 100 µM										
O=C(c1ccc(Cl)cc1)c1ccc(OCCCCCCCCCCOc2ccc(C(=O)c3ccc(Cl)cc3)cc2)cc1	> 100 µM	> 100 µM	> 100 µM	> 100 µM	> 100 µM	> 100 µM	> 100 µM	> 100 µM	> 100 µM	> 100 µM										
CC(C)=CCC/C(C)=C/CC/C(C)=C/Cc1c(O)c2ccccc2oc1=O	> 100 µM	> 100 µM	> 100 µM	> 100 µM	> 100 µM	> 100 µM	> 100 µM	> 100 µM	> 100 µM	> 100 µM										
OC1c2ccccc2C2(O)C1C(c1ccccc1)C(c1ccccc1)C2(O)c1ccccc1 (stereo not given)	22.2 µM	21.1 µM	32.9 µM	81.2 µM	> 100 µM	52 µM	46.2 µM	29.7 µM	22.8 µM	64 µM										
